Reference: patent US20070128217A1 (priority 2003, published 2007)

Assays:
[1] = test system: control sera (pooled serum of ten healthy LUMC hospital workers; commercial negative donor pooled serum from the Dutch bloodbank); assay type: binding, human; design: Binding of Control serum LUMC to linear peptides / Binding of Control serum Blood-bank to linear peptides / Binding of Control serum LUMC to looped peptides / Binding of Control Serum Blood-Bank to Looped peptides / Binding of Control serum LUMC to linear peptides of the protein M of SARS-CoV Urbani / Binding of Control serum Blood-bank to linear peptides of the protein M of SARS-CoV Urbani / Binding of Control serum LUMC to looped peptides of the protein M of SARS-CoV Urbani / Binding of Control Serum Blood-Bank to Looped peptides of the protein M of SARS-CoV Urbani: unit not given here
[2] = test system: rabbit serum obtained by immunizing a rabbit with the SARS-CoV strain Frankfurt 1; assay type: binding; design: Binding of a rabbit serum to linear peptides / Binding of a rabbit serum to looped peptides / Rabbit serum linear peptides / Rabbit serum looped peptides / Binding of a rabbit serum to linear peptides of protein N of SARS-CoV Urbani (Rabbit serum linear peptides) / Binding of a rabbit serum to looped/cyclic peptides of protein N of SARS-CoV Urbani (Rabbit serum looped peptides): unit not given here
[3] = test system: antibodies in sera from SARS patients (sera 1a, 1b, 2, 6, 37, 62, London, SARS-yellow, SARS-green); assay type: binding, human; design: Binding of serum 6 to linear peptides of protein X1 of SARS-CoV Urbani / Binding of serum 37 to linear peptides of protein X1 of SARS-CoV Urbani / Binding of serum 6 to looped/cyclic peptide (PEPSCAN-ELISA) / Binding of serum 37 to looped/cyclic peptide (PEPSCAN-ELISA) / Binding of serum 37 to looped/cyclic peptides of protein X1 of SARS-CoV Urbani / Binding of serum 6 to linear peptides of protein X2 / Binding of serum 37 to linear peptides of protein X2 / Binding of serum 37 to looped/cyclic peptides of protein X2 of SARS-CoV Urbani / Binding of serum 6 to linear peptides of protein M of SARS-CoV Urbani / Binding of serum 37 to linear peptides of protein M of SARS-CoV Urbani / Binding of serum 6 to looped/cyclic peptides of protein M of SARS-CoV Urbani / Binding of serum 37 to looped/cyclic peptides of protein M of SARS-CoV Urbani / Binding of serum 6 to linear peptides of protein X3 of SARS-CoV Urbani / Binding of serum 37 to linear peptides of protein X3 of SARS-CoV Urbani / Binding of serum 37 to looped/cyclic peptides of protein X3 of SARS-CoV Urbani / Binding of serum 6 to linear peptides of protein X4 of SARS-CoV Urbani / Binding of serum 37 to linear peptides of protein X4 of SARS-CoV Urbani / Binding of serum 37 to looped/cyclic peptides of protein X4 of SARS-CoV Urbani / Binding of serum 6 to linear peptides of protein X5 of SARS-CoV Urbani / Binding of serum 37 to linear peptides of protein X5 of SARS-CoV Urbani / Binding of serum 37 to looped/cyclic peptides of protein X5 of SARS-CoV Urbani / Binding of serum 6 to linear peptides of protein N of SARS-CoV Urbani / Binding of serum 37 to linear peptides of protein N of SARS-CoV Urbani / Binding of serum 6 to linear peptide (PEPSCAN-ELISA) / Binding of serum 1a to looped/cyclic peptides of protein N of SARS-CoV Urbani / Binding of serum 1b to looped/cyclic peptides of protein N of SARS-CoV Urbani / Binding of serum 2 to looped/cyclic peptides of protein N of SARS-CoV Urbani / Binding of serum 6 to looped/cyclic peptides of protein N of SARS-CoV Urbani / Binding of serum 37 to looped/cyclic peptides of protein N of SARS-CoV Urbani / Binding of serum 62 to looped/cyclic peptides of protein N of SARS-CoV Urbani / Binding of serum London to looped/cyclic peptides of protein N of SARS-CoV Urbani / Binding of serum SARS-green to looped/cyclic peptides of protein N of SARS-CoV Urbani: unit not given here

Sequence: IVFTSCELYHYQECV
- Binding of Control Serum Blood-Bank to Looped peptides [1]: 0.8
- Binding of Control serum Blood-bank to linear peptides [1]: 0.8
- Binding of Control serum LUMC to linear peptides [1]: 0.8
- Binding of Control serum LUMC to looped peptides [1]: 0.9
- Rabbit serum linear peptides [2]: 0.4
- Rabbit serum looped peptides [2]: 0.4
- Binding of serum 1a to linear peptides of protein X4 of SARS-CoV Urbani [3]: 0.8
- Binding of serum 1a to looped/cyclic peptides of protein X4 of SARS-CoV Urbani [3]: 0.9
- Binding of serum 1b to linear peptides of protein X4 of SARS-CoV Urbani [3]: 0.9
- Binding of serum 1b to looped/cyclic peptides of protein X4 of SARS-CoV Urbani [3]: 0.8
- Binding of serum 2 to linear peptides of protein X4 of SARS-CoV Urbani [3]: 0.6
- Binding of serum 2 to looped/cyclic peptides of protein X4 of SARS-CoV Urbani [3]: 0.8
- Binding of serum 6 to linear peptides of protein X4 of SARS-CoV Urbani [3]: 0.8
- Binding of serum 6 to looped/cyclic peptides of protein X4 of SARS-CoV Urbani [3]: 0.6
- Binding of serum 37 to linear peptides of protein X4 of SARS-CoV Urbani [3]: 1.0
- Binding of serum 37 to looped/cyclic peptides of protein X4 of SARS-CoV Urbani [3]: 1.0
- Binding of serum 62 to linear peptides of protein X4 of SARS-CoV Urbani [3]: 1.0
- Binding of serum 62 to looped/cyclic peptides of protein X4 of SARS-CoV Urbani [3]: 0.8
- Binding of serum London to linear peptides of protein X4 of SARS-CoV Urbani [3]: 0.8
- Binding of serum London to looped/cyclic peptides of protein X4 of SARS-CoV Urbani [3]: 0.3
- Binding of serum SARS-green to linear peptides of protein X4 of SARS-CoV Urbani [3]: 0.9
- Binding of serum SARS-green to looped/cyclic peptides of protein X4 of SARS-CoV Urbani [3]: 0.8
- Binding of serum SARS-yellow to linear peptides of protein X4 of SARS-CoV Urbani [3]: 0.4
- Binding of serum SARS-yellow to looped/cyclic peptides of protein X4 of SARS-CoV Urbani [3]: 0.6

Sequence: IVTRPLMESELVIGA
- Binding of Control Serum Blood-Bank to Looped peptides of the protein M of SARS-CoV Urbani [1]: 0.9
- Binding of Control serum Blood-bank to linear peptides of the protein M of SARS-CoV Urbani [1]: 0.7
- Binding of Control serum LUMC to linear peptides of the protein M of SARS-CoV Urbani [1]: 0.8
- Binding of Control serum LUMC to looped peptides of the protein M of SARS-CoV Urbani [1]: 1.0
- Rabbit serum linear peptides [2]: 0.1
- Rabbit serum looped peptides [2]: 0.4
- Binding of serum 1a to linear peptides of protein M of SARS-CoV Urbani [3]: 0.8
- Binding of serum 1b to linear peptides of protein M of SARS-CoV Urbani [3]: 0.7
- Binding of serum 2 to linear peptides of protein M of SARS-CoV Urbani [3]: 0.6
- Binding of serum 6 to linear peptides of protein M of SARS-CoV Urbani [3]: 0.4
- Binding of serum 37 to linear peptides of protein M of SARS-CoV Urbani [3]: 0.6
- Binding of serum 62 to linear peptides of protein M of SARS-CoV Urbani [3]: 0.6
- Binding of serum London to linear peptides of protein M of SARS-CoV Urbani [3]: 0.3
- Binding of serum SARS-green to linear peptides of protein M of SARS-CoV Urbani [3]: 0.6
- Binding of serum SARS-yellow to linear peptides of protein M of SARS-CoV Urbani [3]: 0.5
- Recognition of the peptide by sera of SARS-CoV infected individuals, and form (linear, looped/cyclic) in which it is recognized [3]: recognized in looped/cyclic form

Sequence: IVVTEGDGISTPKLK
- Binding of Control Serum Blood-Bank to Looped peptides [1]: 0.3
- Binding of Control serum Blood-bank to linear peptides [1]: 0.3
- Binding of Control serum LUMC to linear peptides [1]: 0.3
- Binding of Control serum LUMC to looped peptides [1]: 0.3
- Binding of a rabbit serum to linear peptides [2]: 0.1
- Binding of a rabbit serum to looped peptides [2]: 0.4
- Binding of serum 1a to linear peptides of protein X1 of SARS-CoV Urbani [3]: 0.5
- Binding of serum 1a to looped/cyclic peptides of protein X1 of SARS-CoV Urbani [3]: 0.3
- Binding of serum 1b to linear peptides of protein X1 of SARS-CoV Urbani [3]: 0.5
- Binding of serum 1b to looped/cyclic peptides of protein X1 of SARS-CoV Urbani [3]: 0.2
- Binding of serum 2 to linear peptides of protein X1 of SARS-CoV Urbani [3]: 0.3
- Binding of serum 2 to looped/cyclic peptides of protein X1 of SARS-CoV Urbani [3]: 0.1
- Binding of serum 6 to linear peptides of protein X1 of SARS-CoV Urbani [3]: 0.4
- Binding of serum 6 to looped/cyclic peptides of protein X1 of SARS-CoV Urbani [3]: 0.1
- Binding of serum 37 to linear peptides of protein X1 of SARS-CoV Urbani [3]: 0.5
- Binding of serum 37 to looped/cyclic peptides of protein X1 of SARS-CoV Urbani [3]: 0.2
- Binding of serum 62 to linear peptides of protein X1 of SARS-CoV Urbani [3]: 0.3
- Binding of serum 62 to looped/cyclic peptides of protein X1 of SARS-CoV Urbani [3]: 0.3
- Binding of serum London to linear peptides of protein X1 of SARS-CoV Urbani [3]: 0.2
- Binding of serum London to looped/cyclic peptides of protein X1 of SARS-CoV Urbani [3]: 0.1
- Binding of serum SARS-green to linear peptides of protein X1 of SARS-CoV Urbani [3]: 0.1
- Binding of serum SARS-green to looped/cyclic peptides of protein X1 of SARS-CoV Urbani [3]: 0.0
- Binding of serum SARS-yellow to linear peptides of protein X1 of SARS-CoV Urbani [3]: 0.1
- Binding of serum SARS-yellow to looped/cyclic peptides of protein X1 of SARS-CoV Urbani [3]: 0.1

Sequence: IYFLQCINACRIIMR
- Binding of Control Serum Blood-Bank to Looped peptides [1]: 0.6
- Binding of Control serum Blood-bank to linear peptides [1]: 0.7
- Binding of Control serum LUMC to linear peptides [1]: 0.7
- Binding of Control serum LUMC to looped peptides [1]: 0.6
- Binding of a rabbit serum to linear peptides [2]: 0.5
- Binding of a rabbit serum to looped peptides [2]: 0.9
- Binding of serum 1a to linear peptides of protein X1 of SARS-CoV Urbani [3]: 0.7
- Binding of serum 1a to looped/cyclic peptide (PEPSCAN-ELISA) [3]: 0.6
- Binding of serum 1b to linear peptides of protein X1 of SARS-CoV Urbani [3]: 0.6
- Binding of serum 1b to looped/cyclic peptide (PEPSCAN-ELISA) [3]: 0.4
- Binding of serum 2 to linear peptides of protein X1 of SARS-CoV Urbani [3]: 0.6
- Binding of serum 2 to looped/cyclic peptide (PEPSCAN-ELISA) [3]: 0.8
- Binding of serum 6 to linear peptides of protein X1 of SARS-CoV Urbani [3]: 0.5
- Binding of serum 6 to looped/cyclic peptide (PEPSCAN-ELISA) [3]: 1.0
- Binding of serum 37 to linear peptides of protein X1 of SARS-CoV Urbani [3]: 0.7
- Binding of serum 37 to looped/cyclic peptide (PEPSCAN-ELISA) [3]: 0.6
- Binding of serum 62 to linear peptides of protein X1 of SARS-CoV Urbani [3]: 0.7
- Binding of serum 62 to looped/cyclic peptide (PEPSCAN-ELISA) [3]: 0.7
- Binding of serum London to linear peptides of protein X1 of SARS-CoV Urbani [3]: 0.3
- Binding of serum London to looped/cyclic peptide (PEPSCAN-ELISA) [3]: 1.6
- Binding of serum SARS-green to linear peptides of protein X1 of SARS-CoV Urbani [3]: 0.2
- Binding of serum SARS-green to looped/cyclic peptide (PEPSCAN-ELISA) [3]: 0.2
- Binding of serum SARS-yellow to linear peptides of protein X1 of SARS-CoV Urbani [3]: 0.5
- Binding of serum SARS-yellow to looped/cyclic peptide (PEPSCAN-ELISA) [3]: 0.6

Sequence: KDLPKEITVATSRTL
- Binding of Control Serum Blood-Bank to Looped peptides of the protein M of SARS-CoV Urbani [1]: 0.6
- Binding of Control serum Blood-bank to linear peptides of the protein M of SARS-CoV Urbani [1]: 0.7
- Binding of Control serum LUMC to linear peptides of the protein M of SARS-CoV Urbani [1]: 0.6
- Binding of Control serum LUMC to looped peptides of the protein M of SARS-CoV Urbani [1]: 0.8
- Rabbit serum linear peptides [2]: 0.2
- Rabbit serum looped peptides [2]: 0.3
- Binding of serum 1a to linear peptides of protein M of SARS-CoV Urbani [3]: 0.7
- Binding of serum 1a to looped/cyclic peptides of protein M of SARS-CoV Urbani [3]: 0.6
- Binding of serum 1b to linear peptides of protein M of SARS-CoV Urbani [3]: 0.6
- Binding of serum 1b to looped/cyclic peptides of protein M of SARS-CoV Urbani [3]: 0.6
- Binding of serum 2 to linear peptides of protein M of SARS-CoV Urbani [3]: 0.6
- Binding of serum 2 to looped/cyclic peptides of protein M of SARS-CoV Urbani [3]: 0.7
- Binding of serum 6 to linear peptides of protein M of SARS-CoV Urbani [3]: 0.5
- Binding of serum 6 to looped/cyclic peptides of protein M of SARS-CoV Urbani [3]: 1.1
- Binding of serum 37 to linear peptides of protein M of SARS-CoV Urbani [3]: 0.5
- Binding of serum 37 to looped/cyclic peptides of protein M of SARS-CoV Urbani [3]: 0.6
- Binding of serum 62 to linear peptides of protein M of SARS-CoV Urbani [3]: 0.5
- Binding of serum 62 to looped/cyclic peptides of protein M of SARS-CoV Urbani [3]: 0.6
- Binding of serum London to linear peptides of protein M of SARS-CoV Urbani [3]: 0.3
- Binding of serum London to looped/cyclic peptides of protein M of SARS-CoV Urbani [3]: 1.1
- Binding of serum SARS-green to linear peptides of protein M of SARS-CoV Urbani [3]: 0.5
- Binding of serum SARS-green to looped/cyclic peptides of protein M of SARS-CoV Urbani [3]: 0.3
- Binding of serum SARS-yellow to linear peptides of protein M of SARS-CoV Urbani [3]: 0.2
- Binding of serum SARS-yellow to looped/cyclic peptides of protein M of SARS-CoV Urbani [3]: 0.9
